Columns and labels:
[1] = Prodrug in vivo pharmacokinetics in monkeys (plasma, LC-MS-MS); set-up: species or system Monkey (Cynomolgus); conditions: for AUC / Cmax / Tmax / half-life: cynomolgus monkey; for F: calculated using IV AUC of 476 ng · h/mL
Procedure: Test substances (Examples 4 and 71-73) were administered by oral gavage to groups of two monkeys.
Blood samples were taken at various times after administration and submitted to analysis for the parent drug (Example 4 and Example 71) and pro-drug (Examples 72 and 73) using an LC-MS-MS assay. […] Pharmacokinetic parameters derived from the plasma analytical data were determined using Watson LIMS 7.2.003 (Thermo Fisher Scientific, Waltham, Mass.). The results are given in FIG. 2 and Tables 13, 14, and 15.

[2] = target: human KAT II (hKAT II) enzyme (Homo sapiens, UniProt Q8N5Z0); experiment: KAT II Inhibition Spectra Assay; format: biochemical; conditions: Table 6; hKAT II, decrease in OD370, 37° C., 15-20 h; read-out: KATII IC50
Chain of human KAT II (hKAT II) enzyme (Q8N5Z0 30-425): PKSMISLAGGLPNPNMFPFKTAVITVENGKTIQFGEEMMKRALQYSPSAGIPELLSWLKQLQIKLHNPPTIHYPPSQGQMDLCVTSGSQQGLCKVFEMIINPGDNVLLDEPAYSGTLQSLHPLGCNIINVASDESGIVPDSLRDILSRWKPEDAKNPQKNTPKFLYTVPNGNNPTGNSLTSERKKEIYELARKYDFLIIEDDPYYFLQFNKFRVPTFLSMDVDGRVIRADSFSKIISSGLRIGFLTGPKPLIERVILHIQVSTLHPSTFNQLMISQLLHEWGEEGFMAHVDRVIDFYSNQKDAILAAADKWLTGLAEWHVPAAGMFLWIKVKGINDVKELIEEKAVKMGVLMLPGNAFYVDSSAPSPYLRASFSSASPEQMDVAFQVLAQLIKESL
Procedure, shortened: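 hKAT II (15 nM, 3× stock) converts L-kynurenine (3 mM, 3× stock) with α-ketoglutarate and PLP in Tris acetate; 15–20 h at 37 °C. Inhibition of the OD370 decrease read versus DMSO wells across a concentration range gives IC50.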

[3] = Prodrug in vivo pharmacokinetics in dogs (plasma, LC-MS-MS); set-up: species or system Dog (Beagle); conditions: for AUC / Cmax / Tmax / half-life: Beagle, dog; for F: calculated using IV AUC of 247 ng · h/mL
Procedure: Test substances (Examples 4 and 71-73) were administered by oral gavage to groups of two dogs. Example 71 was also administered intravenously.
Blood samples were taken at various times after administration and submitted to analysis for the parent drug (Example 71) and pro-drug (Examples 72 and 73) using an LC-MS-MS assay. Pharmacokinetic parameters derived from the plasma analytical data were determined using Watson LIMS 7.2.003 (Thermo Fisher Scientific, Waltham, Mass.). The results are given in FIG. 1 and Tables 8, 9, 10, and 11.

[4] = Cynomolgus, plasma, po, 3 mg/kg, Example 71 in monkey plasma after oral Example 71 (3 mg/kg active), Mean
[5] = Cynomolgus, plasma, po, 3 mg/kg, Example 71 in monkey plasma after oral Example 71 (3 mg/kg active), Monkey 1
[6] = Cynomolgus, plasma, po, 3 mg/kg, Example 71 in monkey plasma after oral Example 71 (3 mg/kg active), Monkey 2
[7] = Example 71 in monkey plasma after oral Example 71 (3 mg/kg active), Mean
[8] = Example 71 in monkey plasma after oral Example 71 (3 mg/kg active), Monkey 1
[9] = Example 71 in monkey plasma after oral Example 71 (3 mg/kg active), Monkey 2
[10] = plasma, po, 2 mg/kg, Example 71 in dog plasma after oral Example 71 (2 mg/kg active), Dog 1
[11] = plasma, po, 2 mg/kg, Example 71 in dog plasma after oral Example 71 (2 mg/kg active), Dog 2
[12] = plasma, po, 2 mg/kg, Example 71 in dog plasma after oral Example 71 (2 mg/kg active), Mean
[13] = Example 71 in dog plasma after oral Example 71 (2 mg/kg active), Dog 1
[14] = Example 71 in dog plasma after oral Example 71 (2 mg/kg active), Dog 2
[15] = Example 71 in dog plasma after oral Example 71 (2 mg/kg active), Mean

Cl.N[C@H]1Cc2cc(Oc3ccccc3)ccc2N(O)C1=O [Example 71, (3S)-3-amino-1-hydroxy-6-phenoxy-3,4-dihydroquinolin-2(1H)-one, hydrochloride salt]
AUC ([1]; Cynomolgus, in vivo, plasma exposure of Example 71 in monkeys following intravenous administration of Example 71 at 0.5 mg/kg, read-out: AUC): 476 ng·h/mL | Cmax [1, 4]: 53.4 ng/mL | Tmax [1, 4]: 22.8 min | half-life [1, 4]: 52.9 min | Cmax [1, 5]: 44 ng/mL | Tmax [1, 5]: 15 min | half-life [1, 5]: 62.4 min | Cmax [1, 6]: 62.8 ng/mL | Tmax [1, 6]: 30 min | half-life [1, 6]: 43.4 min | % AUC Extrap [1, 7]: 1.28% | % AUC Extrap [1, 8]: 2.19% | % AUC Extrap [1, 9]: 0.366% | F [1, 7]: 3.2% | F [1, 8]: 2.2% | F [1, 9]: 4.2% | AUC ([1]; plasma, po, 3 mg/kg, Example 71 in monkey plasma after oral Example 71 (3 mg/kg active), Mean, read-out: AUC): 94.8 ng·h/mL | AUC ([1]; plasma, po, 3 mg/kg, Example 71 in monkey plasma after oral Example 71 (3 mg/kg active), Mean, read-out: AUC Extrap): 95.4 ng·h/mL | AUC ([1]; plasma, po, 3 mg/kg, Example 71 in monkey plasma after oral Example 71 (3 mg/kg active), Monkey 1, read-out: AUC): 55.5 ng·h/mL | AUC ([1]; plasma, po, 3 mg/kg, Example 71 in monkey plasma after oral Example 71 (3 mg/kg active), Monkey 1, read-out: AUC Extrap): 56.7 ng·h/mL | AUC ([1]; plasma, po, 3 mg/kg, Example 71 in monkey plasma after oral Example 71 (3 mg/kg active), Monkey 2, read-out: AUC): 134 ng·h/mL | AUC ([1]; plasma, po, 3 mg/kg, Example 71 in monkey plasma after oral Example 71 (3 mg/kg active), Monkey 2, read-out: AUC Extrap): 134 ng·h/mL | IC50 [2]: 22.7 nM | AUC ([3]; in vivo, exposure of Example 71 in dogs following intravenous administration of Example 71 at 0.5 mg/kg, read-out: AUC): 247 ng·h/mL | Cmax [3, 10]: 25.4 ng/mL | Tmax [3, 10]: 15 min | half-life [3, 10]: 26.3 min | AUC ([3]; plasma, po, 2 mg/kg, Example 71 in dog plasma after oral Example 71 (2 mg/kg active), Dog 1, read-out: AUC): 10.3 ng·h/mL | AUC ([3]; plasma, po, 2 mg/kg, Example 71 in dog plasma after oral Example 71 (2 mg/kg active), Dog 1, read-out: AUC Extrap): 10.7 ng·h/mL | Cmax [3, 11]: 15.4 ng/mL | Tmax [3, 11]: 15 min | half-life [3, 11]: 17.9 min | AUC ([3]; plasma, po, 2 mg/kg, Example 71 in dog plasma after oral Example 71 (2 mg/kg active), Dog 2, read-out: AUC): 12.2 ng·h/mL | AUC ([3]; plasma, po, 2 mg/kg, Example 71 in dog plasma after oral Example 71 (2 mg/kg active), Dog 2, read-out: AUC Extrap): 12.5 ng·h/mL | Cmax [3, 12]: 20.4 ng/mL | Tmax [3, 12]: 15 min | half-life [3, 12]: 22.1 min | AUC ([3]; plasma, po, 2 mg/kg, Example 71 in dog plasma after oral Example 71 (2 mg/kg active), Mean, read-out: AUC): 11.3 ng·h/mL | AUC ([3]; plasma, po, 2 mg/kg, Example 71 in dog plasma after oral Example 71 (2 mg/kg active), Mean, read-out: AUC Extrap): 11.6 ng·h/mL | % AUC Extrap [3, 13]: 3.44% | % AUC Extrap [3, 14]: 2.35% | % AUC Extrap [3, 15]: 2.9% | F [3, 13]: 1.0% | F [3, 14]: 1.3% | F [3, 15]: 1.2%
